# Data from PMC8134483 (Scientific Reports, 2021).
# Like-named read-outs stand apart in the source and are kept apart here.
# What was measured:
# [1] = biological target: T1, hCB1R (Homo sapiens, UniProt P21554); assay: biochemical; format: binding; conditions: for CB1R versus CB2R selectivity, receptor affinity: CB1R vs CB2R [^3H]CP55,940 binding
# T1 construct: expressed in transfected cells; host or cells: CHO-K1
# [2] = biological target: T1, hCB1R; assay: cell-based; format: cell-based; conditions: for EC50: CHO hCB1R, 10 µM FSK, 90 min, value with 95% CI, read-out: CB1R cAMP Inhibition EC50; for Emax: read-out: CB1R cAMP Inhibition Emax
# [3] = biological target: T1, hCB1R; assay: cell-based; format: cell-based; conditions: for CB1R versus CB2R selectivity, βarrestin2 recruitment: CB1R vs CB2R; for EC50: CHO hCB1R, 90 min, value with 95% CI, read-out: CB1R βarrestin2 recruitment EC50; for Emax: read-out: CB1R βarrestin2 recruitment Emax; for βarrestin2 recruitment to CB1R, activity in words: relative to CP55940
# [4] = biological target: T2, hCB2R (Homo sapiens, UniProt P34972); assay: [^3H]CP55,940 competition (radioligand displacement) binding to CB2R; conditions: for CB2R [^3H]CP55,940 Emin: bottom of the concentration–response curve, mean ± SEM
# T2 construct: host or cells: CHO-K1 (PathHunter)
# [5] = biological target: T2, hCB2R; assay: HitHunter inhibition of FSK-stimulated cAMP, CB2R; format: cell-based
# [6] = biological target: T2, hCB2R; assay: PathHunter βarrestin2 recruitment, CB2R; format: cell-based; conditions: for βarrestin2 recruitment to CB2R, activity in words: relative to CP55,940
# [7] = biological target: T1, hCB1R; assay: CB1R bias analysis (operational model, cAMP inhibition vs βarrestin2); format: cell-based; conditions: for CB1R bias between cAMP inhibition and βarrestin2 recruitment, ∆∆LogR (cAMP—βarr2), in words: CP55,940 as reference agonist, >0 cAMP bias, <0 βarrestin2 bias
# Experimental: (§1) Estimates of Ki, EC50, Emin, and Emax were determined using non-linear regression with variable slope (four parameters) (GraphPad, Prism, v. 8.0). […] One-way analysis of variance (ANOVA), followed by Tukey’s post-hoc test, was used for statistical analyses (p < 0.05 determined to be significant); and Bartlett’s test was used to confirm homogeneity of variance (GraphPad).
# [8] = biological target: T2, hCB2R; assay: CB2R bias analysis (operational model, cAMP inhibition vs βarrestin2); format: cell-based; conditions: CP55,940 as reference agonist; >0 cAMP bias, <0 βarrestin2 bias
# Experimental: as §1
# [9] = system: male C57Bl/6 mice; assay: Catalepsy, ring holding assay; format: in vivo; conditions: 0.1–10 mg/kg i.p.; 5 min; % MPE 60 s
# Experimental: (§2) Adult male C57BL/6 mice aged 6–10 weeks (mean weight 24 ± 0.5 g) were purchased from Charles River Labs (Senneville, QC). Animals were group housed (three per cage) with ad libitum access to food, water, and environmental enrichment and maintained on a 12 h light/dark cycle. Mice were randomly assigned to receive i.p. injections of vehicle (1:1:18 ethanol:emulphor:saline) or 0.1–10 mg/kg SCRA (n ≥ 4 per group). All protocols have been described previously and were in accordance with the guidelines detailed by the Canadian Council on Animal Care and approved by the Animal Research Ethics Board and the Scientific Merit Review Committee for Animal Behaviour at the University of Saskatchewan. […]
# (§3) Modified tetrad testing (catalepsy, body temperature, tail flick assay) was conducted according to previously described methods, which are summarized briefly here. […] Catalepsy was assessed in the ring holding assay 5 min following injection with mouse forepaws clasped to a 5 mm ring positioned 5 cm above the surface of the testing space. The length of time the ring was held was recorded (s) to a maximum time of 60 s (i.e. MPE = 60 s). Internal body temperature was measured 15 min after injection. Anti-nociception was determined by assessing tail flick latency 20 min after injection. […]
# [10] = system: male C57Bl/6 mice; assay: Internal body temperature; format: in vivo; conditions: 0.1–10 mg/kg i.p.; 15 min
# Experimental: as §2, §3
# [11] = system: male C57Bl/6 mice; assay: Anti-nociception, tail flick assay; format: in vivo; conditions: 0.1–10 mg/kg i.p.; 20 min; 52 °C; % MPE 20 s
# Experimental: as §2, §3
# [12] = system: male C57Bl/6 mice; assay: Elevated plus maze (EPM); format: in vivo; conditions: 1.0 mg/kg i.p., 30 min after treatment, 5 min trial; for EPM total arm entries: vs vehicle
# Experimental: Adult male C57BL/6 mice aged 6–10 weeks (mean weight 24 ± 0.5 g) were purchased from Charles River Labs (Senneville, QC). Animals were group housed (three per cage) with ad libitum access to food, water, and environmental enrichment and maintained on a 12 h light/dark cycle. Mice were randomly assigned to receive i.p. injections of vehicle (1:1:18 ethanol:emulphor:saline) or 0.1–10 mg/kg SCRA (n ≥ 4 per group). All protocols have been described previously and were in accordance with the guidelines detailed by the Canadian Council on Animal Care and approved by the Animal Research Ethics Board and the Scientific Merit Review Committee for Animal Behaviour at the University of Saskatchewan. The following steps were taken to ensure our study was in keeping with the ARRIVE guidelines: (1) power analyses were conducted to determine the minimum number of animals required for the study; (2) animals were purchased—rather than bred—to limit animal waste; and (3) all assessments of animal behaviour were made by individuals blinded to the treatment group,[57].
# EPM was conducted according to methods adapted from Marks et al.. The EPM was built from a plywood base painted blue with blue corrugated plastic floor and walls. The floor of the maze was composed of perpendicular interlocking arms (110 cm long × 10 cm wide) with two arms having 45 cm walls (closed arms) and two arms having no walls and a 0.5 cm edge (open arms), all elevated 45 cm from the ground. Trials began with the mouse in the central zone facing an open arm. Trials lasted 5 min and began 30 min after SCRA treatment. An arm entry was considered to be all four limbs leaving the central zone. Arm entries and the percent time spent in open versus closed arms were recorded by an observer blinded to the treatment group. Less time in the open arms and more time in the closed arms was used as a model of anxiogenic behaviour.
# [13] = bottom of the concentration–response curve, mean ± SEM
# T2 sequence (P34972 whole entry): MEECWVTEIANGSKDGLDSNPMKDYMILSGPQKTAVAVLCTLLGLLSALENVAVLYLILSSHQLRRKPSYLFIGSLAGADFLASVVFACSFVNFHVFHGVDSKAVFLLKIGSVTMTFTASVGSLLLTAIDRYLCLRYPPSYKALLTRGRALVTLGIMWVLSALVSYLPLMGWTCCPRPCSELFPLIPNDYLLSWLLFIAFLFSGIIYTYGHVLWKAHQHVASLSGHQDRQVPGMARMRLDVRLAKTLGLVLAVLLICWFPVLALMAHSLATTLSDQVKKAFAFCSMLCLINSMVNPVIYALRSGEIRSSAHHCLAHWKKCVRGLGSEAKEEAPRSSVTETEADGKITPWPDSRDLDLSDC
# T1 sequence (P21554 whole entry): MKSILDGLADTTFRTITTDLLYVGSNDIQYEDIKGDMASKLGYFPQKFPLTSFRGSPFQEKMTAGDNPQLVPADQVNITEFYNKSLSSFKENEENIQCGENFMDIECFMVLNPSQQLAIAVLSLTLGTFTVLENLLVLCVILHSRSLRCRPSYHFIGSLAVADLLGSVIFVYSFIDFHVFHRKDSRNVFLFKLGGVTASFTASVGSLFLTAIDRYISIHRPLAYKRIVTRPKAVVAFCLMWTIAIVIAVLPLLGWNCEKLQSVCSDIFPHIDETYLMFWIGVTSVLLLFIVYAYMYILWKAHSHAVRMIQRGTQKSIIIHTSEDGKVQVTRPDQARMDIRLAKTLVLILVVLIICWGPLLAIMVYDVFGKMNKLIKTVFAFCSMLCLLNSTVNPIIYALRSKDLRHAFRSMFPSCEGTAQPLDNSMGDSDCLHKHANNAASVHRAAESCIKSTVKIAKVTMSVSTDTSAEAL
Structure (SMILES),Ki [1],"CB1R [^3H]CP55,940 Emin [1, 13]",EC50 [2],Emax [2],"CB1R versus CB2R selectivity, βarrestin2 recruitment [3]",EC50 [3],Emax [3],"βarrestin2 recruitment to CB1R, activity in words [3]",Ki [4],"CB2R [^3H]CP55,940 Emin [4]",EC50 [5],Emax [5],EC50 [6],Emax [6],"βarrestin2 recruitment to CB2R, activity in words [6]","CB1R bias between cAMP inhibition and βarrestin2 recruitment, ∆∆LogR (cAMP—βarr2), in words [7]","CB2R bias between cAMP inhibition and βarrestin2 recruitment, ∆∆LogR (cAMP—βarr2), in words [8]","Affinity for CB2R compared with CP55,940, in words [4]",EPM total arm entries [12],other results
CCC(Cl)CCn1nc(C(=O)NC(C(N)=O)C(C)C)c2ccccc21 (stereo not drawn) [3-chloro AB-PINACA],170 nM,65 ± 5.1 %,0.04 nM,94 ± 2.8%,more potent for CB2R-dependent recruitment of βarrestin2 than CB1R-dependent recruitment of βarrestin2,140 nM,340 ± 11%,greater potency and produced supramaximal EMax responses,52 nM,84 ± 4.3 %,19 nM,87 ± 15%,8.8 nM,130 ± 4.5%,greater potency and produced supramaximal EMax responses,did not display a bias,significant bias toward the recruitment of βarrestin2,–,–,"CB1R versus CB2R selectivity, cAMP inhibition potency ([2]; CB1R vs CB2R): more potent at CB1R relative to CB2R"
COC(=O)[C@@H](NC(=O)c1nn(CCCCF)c2ccccc12)C(C)(C)C [4-fluoro MDMB-BINACA],99 nM,52 ± 7.5 %,10 nM,87 ± 5.6%,–,88 nM,240 ± 10%,greater potency and produced supramaximal EMax responses,0.41 nM,57 ± 11 %,0.56 nM,95 ± 11%,120 nM,130 ± 8.2%,greater potency and produced supramaximal EMax responses,significant bias toward the recruitment of βarrestin2,significant bias toward the recruitment of βarrestin2,significantly greater affinity,reduced total arm entries,"CB1R versus CB2R selectivity, receptor affinity [1]: greater affinity at CB2R relative to CB1R; Observed CB1R bias in cell culture ([7]; cAMP inhibition vs βarrestin2): βarrestin2; Catalepsy response [9]: full agonist; Body temperature (hypothermia) response [10]: full agonist; Anti-nociceptive response, tail flick [11]: full agonist; EPM time in the central quadrant [12]: majority of their time in the central quadrant immobile; EPM time in the open arms [12]: approximately the same amount of time in the open arm as vehicle-treated mice"
O=C(Oc1cccc2cccnc12)c1nn(CCCCCF)c2ccccc12 [5-fluoro NPB-22],47 nM,2.3 ± 7.8%,53 nM,96 ± 7%,–,830 nM,210 ± 12%,"equipotent, but produced supramaximal EMax responses",4.3 nM,34 ± 8.1 %,3.2 nM,110 ± 7.6%,280 nM,120 ± 3.7%,"not different with regard to potency relative to the reference agonist CP55,940, and produced supramaximal EMax responses",significant bias toward the recruitment of βarrestin2,did not display a bias,–,–,–
CCCC(F)Cn1nc(C(=O)NC(C(N)=O)C(C)C)c2ccccc21 (stereo not drawn) [AB-PINACA N-(2-fluoropentyl) isomer],1.6 nM,76 ± 6.2 %,7.3 nM,75 ± 7.5%,more potent for CB2R-dependent recruitment of βarrestin2 than CB1R-dependent recruitment of βarrestin2,240 nM,204 ± 10%,greater potency and produced supramaximal EMax responses,270 nM,2.8 ± 8.1 %,10 nM,91 ± 3.2%,9.4 nM,140 ± 12%,greater potency and produced supramaximal EMax responses,did not display a bias,significant bias toward the recruitment of βarrestin2,significantly less affinity,–,"Competition of 1.0 nM [^3H]CP55,940 from CB1R, in words [1]: only partially competing; CB1R versus CB2R selectivity, receptor affinity [1]: greater affinity at CB1R relative to CB2R; CB1R-dependent inhibition of FSK-stimulated cAMP, activity in words ([2]; relative to CP55940): partial agonist; Competition of 1.0 nM [^3H]CP55,940 from CB2R, in words [4]: completely displaced; Competition of 1.0 nM [^3H]CP55,940 from CB2R, in words ([4]; listed as AB PINACA N-(2-fluoropentyl) isomer): fully competed"
"CCCCCCC(C)(C)c1ccc([C@@H]2C[C@H](O)CC[C@H]2CCCO)c(O)c1 [CP55,940, reference compound]",–,–,–,–,–,–,–,–,–,0.0 ± 5.6%,–,–,–,–,–,–,–,–,reduced total arm entries,"CB1R [^3H]CP55,940 Emin [1]: 0.0 ± 5.2%; EPM time in the central quadrant [12]: majority of their time in the central quadrant immobile"
CC(C)C(NC(=O)c1nn(Cc2ccccc2F)c2ccccc12)C(N)=O (stereo not drawn) [ortho-AB-FUBINACA],2.7 nM,16 ± 5.4%,3.6 nM,83 ± 8.4%,more potent for CB2R-dependent recruitment of βarrestin2 than CB1R-dependent recruitment of βarrestin2,810 nM,280 ± 11%,"equipotent, but produced supramaximal EMax responses",0.93 nM,17 ± 1.2%,0.06 nM,110 ± 6.7%,140 nM,120 ± 3.1%,"not different with regard to potency relative to the reference agonist CP55,940, and produced supramaximal EMax responses",significant bias toward the recruitment of βarrestin2,significant bias toward the inhibition of cAMP,significantly greater affinity,–,"Competition of 1.0 nM [^3H]CP55,940 from CB2R, in words [4]: completely displaced"
"CCCCCc1cc(O)c2c(c1)OC(C)(C)[C@@H]1CCC(C)=C[C@@H]21 [∆^9-THC, ∆^9-tetrahydrocannabinol, reference compound]",–,–,–,–,–,–,–,–,–,65 ± 7.6 %,–,48 ± 3.8%,–,58 ± 1.1%,"significantly lower efficacy, but similar potency",–,did not display a bias,–,did not change total arm entries,"CB2R-dependent inhibition of FSK-stimulated cAMP, activity in words ([5]; relative to CP55,940): significantly lower efficacy; EPM open arm entries [12]: increased open arm entry; EPM time in the open arms [12]: greater amount of time spent in the open arms"
